Measured values from patent publication US6863647B2, “2-Ureido-thiazole derivatives, process for their preparation, and their use as antitumor agents” (Pharmacia & Upjohn S.p.A., priority 1998, dated 2005).

Target: cdk2/cyclin A complex (Homo sapiens, UniProt P24941)
Assay: inhibition assay of cdk2/Cyclin A activity (MultiScreen-PH phosphocellulose filter, 33P-labelled histone H1)
Format: biochemical
Settings: histone H1 substrate, 25 μM ATP; inhibitor 0.0045 to 10 μM; read-out: inhibiting activity towards the cdk2/cyclin A complex (IC50)
Protocol: The inhibiting activity of putative cdk/cyclin inhibitors and the potency of selected compounds was determined through a method of assay based on the use of the MultiScreen-PH 96 well plate (Millipore), in which a phosphocellulose filter paper was placed at each well bottom allowing binding of positive charged substrate after a washing/filtration step.
When a radioactivity labelled phosphate moiety was transferred by the ser/threo kinase to the filter-bound histone, light emitted was measured in a scintillation counter.
The inhibition assay of cdk2/Cyclin A activity was performed according to the following protocol: • Kinase reaction: 1.5 μM histone H1 substrate, 25 μM ATP (0.5 μCi P^33γ-ATF), 30 ng Cyclin A/cdk2 complex, 10 μM inhibitor in a final volume of 100 μl buffer (TRIS HCl 10 mM pH 7.5, MgCl2 10 mM, 7.5 mM DTT) were added to each well of a 96 U bottom well plate. […] Plates were then washed 3 times with 150 μl/well PBS Ca^++/Mg^++ free and filtered by MultiScreen filtration system. • Detection: filters were allowed to dry at 37° C., then 100 μl/well scintillant were added and ^33P labelled histone H1 was detected by radioactivity counting in the Top-Count instrument. • Results: data were analysed and expressed as % inhibition referred to total activity of enzyme (=100%). […]

IC50: 560 nM
SMILES: Cc1cc(C)cc(NC(=O)Nc2ncc(C(C)C)s2)c1 [N-(5-isopropyl-1,3-thiazol-2-yl)-N′-(3,5-dimethylphenyl)urea]
